{"source": "patent US20080201790A1", "about": "“Method and product for regulating cell responsiveness to external signals” (priority 1993, published 2008)", "key": {"p42/p44 MAPK": {"test_system": "p42/p44 MAPK", "assay": "MAPK assay (DEAE-Sephacel, EGFR662-681 peptide) in L929 cells", "assay_type": "cell-based, murine", "conditions": "L929 cells", "protocol": "(§1) In panel A cells were treated for 10 minutes with the indicated concentration of TNFα. JNK activation was measured using a solid phase kinase assay resulting in phosphorylation of GST-Jun. In […] the time course of MAPK activation is shown. MAPK was isolated from cell lysates on DEAE sephacel columns and MAPK activation was measured by phosphorylation of the EGFR peptide substrate. Panel C depicts the concentration curve of MAPK activation by TNFα. Cells were treated with the indicated concentration of TNFα and MAPK was assayed.\nFIG. 26 depicts the activation of MAPK by bFGF in L929 cells. Serum starved L929 cells were stimulated for 10 min with the indicated concentration of bFGF.\n(§2) Cell lines and culture. L929 cells (ATCC CCL1 were maintained in Dulbecco's modified Eagle's medium with 5% newborn calf serum and 5% bovine calf serum (BCS) supplemented with 100 ug/ml streptomycin and 100 U/ml penicillin. The cells were grown in 10 cm dishes at 37° C. in 7.5% CO2. Cells were made quiescent where indicated by incubation in Dulbecco's modified Eagle's medium and 0.1% bovine serum albumin for 24 h. Recombinant murine TNFα and recombinant human bFGF (147aa) were from R&D Systems, Minneapolis, Minn. Cells were pretreated where indicated with the MEK-1 inhibitor PD#098059 (Parke-Davis Pharmaceutical Corp. Ann Arbor, Mich.) for 1 h at 37° C. Cells were stimulated by incubation with the indicated cytokine or growth factor for various times at 37° C. Stimulation was stopped by rinsing the plates twice with ice cold phosphate buffered saline (PBS) and lysing the cells in the appropriate lysis buffer. Cells were scraped from the plates and nuclei were pelleted for 10 min at 14,000 RPM in a microcentrifuge. JNK assay. JNK activity was measured using a solid state kinase assay in which glutathione S-transferase-c-Jun (1-79) (GST-JUN) cound to glutathione-Sepharose 4B beads was used to affinity purify JNK and then JNK activity was measured in an in vitro kinase assay using the sepharose bound GST-Jun as a substrate (Hibi, M., et al. (1993) Genes & Development 7:2135-2148). Stimulated or unstimulated cells were lysed in 0.5% Nonidet P-40, 20 mM HEPES pH 7.2, 100 mM NaCl, 2 mM dithiothreitol, 1 mM EDTA, 1.0 mM phenylmethylsulfonylfluoride, 1 μg/ml aprotinin and the nuclei pelleted. Lysates were normalized for protein content. JNK was affinity purified from 50-100 μg of cell lysate by the addition of 10 ul of GST-Jun sepharose slurry (2 μg GST-Jun). Binding to GST-Jun efficiently isolates the two major forms of JNK (p45 and p55) and under the conditions used JNK isolation was linear for 10-250 μg of cell lysate. The lysates were rotated at 4° C. for 1-3 h. Beads were washed twice in lysis buffer and then twice in PAN (10 mM PIPES, pH 7.0, 100 mM NaCl, 21 μg/ml aprotinin). Kinase reactions were carried out at 30° C. for 15 min in 20 mM Hepes pH 7.2, 20 mM β-glycerophosphate, 10 mM p-nitrophenyl phosphate, 10 mM MgCl2, 1 mM dithiothreitol, 50 μm sodium vanadate, 10 μCi γ^32P-ATP 4300 Ci/mmole. The kinase reaction was linear from 0-30 min. MAPK Assay MAPK activity was measured exactly as described previously (Gardner, A. M., et al. (1994) Meth. Enzymol. 238:258-270) with the exception that MonoQ FPLC fractionation was replaced by step elution from a DEAE-Sephacel column using 0.5 M NaCl in loading buffer. The eluate was assayed in triplicate using the epidermal growth factor receptor 662-681 peptide (EGFR662-681) as a selective substrate for MAPK activity (Heasley, L. E., et al. (1994) American Journal of Physiology (Renal Fluid Electrolyte Physiol. 36) 267:F366-F373). […] Cells were lysed by scraping in ice cold RIPA buffer (50 mM Tris-HCl, pH 7.2, 150 mM NaCl, 0.1% SDS, 0.5% sodium deoxycholate, 1.0% Triton X-100, 10 mM sodium pyrophosphate, 25 mM β-glycerophosphate, 2 mM sodium vanadate, 2.1 μg/ml aprotinin) and the nuclei were pelletted. […]"}, "JNK": {"test_system": "JNK", "assay": "JNK solid state kinase assay (GST-Jun) in L929 cells", "assay_type": "cell-based, murine", "conditions": "not shown", "protocol": "as §1, §2"}, "L929 cells": {"test_system": "L929 cells", "assay": "Neutral red cell viability assay of L929 cells treated with TNFα and/or bFGF", "assay_type": "cell-based, murine", "conditions": "L929 cells", "protocol": "In panel A cells were treated with the indicated concentrations of TNFα for 15 hours and were assayed for uptake of neutral red. In panel B cells were untreated (solid bars), treated with 0.5 ng/ml bFGF (dotted bars) or 5.0 ng/ml bFGF (hatched bars) and the indicated concentrations of TNFα for 18 hours. Cell viability was assessed by neutral red assay.\nIn panel A serum starved L929 cells were untreated or treated for 1 hour at 37° C. with the MEK-1 inhibitor (PD) and then unstimulated or stimulated with bFGF. MAPK activity was measured. In panel B L929 cells were untreated or treated for 1 hour at 37° C. with PD and then were untreated or treated with TNFα alone or in combination with bFGF for 18 hours. Cell viability was assessed by neutral red assay.\nCell lines and culture. L929 cells (ATCC CCL1 were maintained in Dulbecco's modified Eagle's medium with 5% newborn calf serum and 5% bovine calf serum (BCS) supplemented with 100 ug/ml streptomycin and 100 U/ml penicillin. The cells were grown in 10 cm dishes at 37° C. in 7.5% CO2. Cells were made quiescent where indicated by incubation in Dulbecco's modified Eagle's medium and 0.1% bovine serum albumin for 24 h. Recombinant murine TNFα and recombinant human bFGF (147aa) were from R&D Systems, Minneapolis, Minn. Cells were pretreated where indicated with the MEK-1 inhibitor PD#098059 (Parke-Davis Pharmaceutical Corp. Ann Arbor, Mich.) for 1 h at 37° C. Cells were stimulated by incubation with the indicated cytokine or growth factor for various times at 37° C. Stimulation was stopped by rinsing the plates twice with ice cold phosphate buffered saline (PBS) and lysing the cells in the appropriate lysis buffer. Cells were scraped from the plates and nuclei were pelleted for 10 min at 14,000 RPM in a microcentrifuge. JNK assay. JNK activity was measured using a solid state kinase assay in which glutathione S-transferase-c-Jun (1-79) (GST-JUN) cound to glutathione-Sepharose 4B beads was used to affinity purify JNK and then JNK activity was measured in an in vitro kinase assay using the sepharose bound GST-Jun as a substrate (Hibi, M., et al. (1993) Genes & Development 7:2135-2148). Stimulated or unstimulated cells were lysed in 0.5% Nonidet P-40, 20 mM HEPES pH 7.2, 100 mM NaCl, 2 mM dithiothreitol, 1 mM EDTA, 1.0 mM phenylmethylsulfonylfluoride, 1 μg/ml aprotinin and the nuclei pelleted. Lysates were normalized for protein content. JNK was affinity purified from 50-100 μg of cell lysate by the addition of 10 ul of GST-Jun sepharose slurry (2 μg GST-Jun). Binding to GST-Jun efficiently isolates the two major forms of JNK (p45 and p55) and under the conditions used JNK isolation was linear for 10-250 μg of cell lysate. The lysates were rotated at 4° C. for 1-3 h. Beads were washed twice in lysis buffer and then twice in PAN (10 mM PIPES, pH 7.0, 100 mM NaCl, 21 μg/ml aprotinin). Kinase reactions were carried out at 30° C. for 15 min in 20 mM Hepes pH 7.2, 20 mM β-glycerophosphate, 10 mM p-nitrophenyl phosphate, 10 mM MgCl2, 1 mM dithiothreitol, 50 μm sodium vanadate, 10 μCi γ^32P-ATP 4300 Ci/mmole. The kinase reaction was linear from 0-30 min. MAPK Assay MAPK activity was measured exactly as described previously (Gardner, A. M., et al. (1994) Meth. Enzymol. 238:258-270) with the exception that MonoQ FPLC fractionation was replaced by step elution from a DEAE-Sephacel column using 0.5 M NaCl in loading buffer. The eluate was assayed in triplicate using the epidermal growth factor receptor 662-681 peptide (EGFR662-681) as a selective substrate for MAPK activity (Heasley, L. E., et al. (1994) American Journal of Physiology (Renal Fluid Electrolyte Physiol. 36) 267:F366-F373). […]"}, "MEK-1": {"biological_target": "MEK-1 (Homo sapiens, UniProt Q02750)", "sequence (Q02750 whole entry, species assumed)": "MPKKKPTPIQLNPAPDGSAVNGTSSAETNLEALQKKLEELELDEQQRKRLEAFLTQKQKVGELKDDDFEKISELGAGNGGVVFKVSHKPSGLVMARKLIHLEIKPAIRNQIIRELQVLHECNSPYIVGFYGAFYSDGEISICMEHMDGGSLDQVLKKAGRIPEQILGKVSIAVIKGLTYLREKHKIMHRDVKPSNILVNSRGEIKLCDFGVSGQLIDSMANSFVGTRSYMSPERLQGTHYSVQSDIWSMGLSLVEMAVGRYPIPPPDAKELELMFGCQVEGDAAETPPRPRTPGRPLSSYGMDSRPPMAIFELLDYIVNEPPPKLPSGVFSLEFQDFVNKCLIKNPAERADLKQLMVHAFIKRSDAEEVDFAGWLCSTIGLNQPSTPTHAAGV", "conditions": "Alessi et al. 1995; cited from earlier work"}}, "data": [{"smiles": "COc1cccc(-c2cc(=O)c3ccccc3o2)c1N", "note": "[PD #098059, reference compound]", "values": [{"measurement": "effect on bFGF stimulation of MAPK activity", "setting": "p42/p44 MAPK", "value": "inhibited bFGF stimulation of MAPK activity"}, {"measurement": "inhibition of JNK kinase / activation of JNK", "setting": "JNK", "value": "did not inhibit JNK kinase or the activation of JNK"}, {"measurement": "effect on TNFα-mediated cell death", "setting": "L929 cells", "value": "had no effect on TNFα-mediated apoptosis"}, {"measurement": "effect on the protective action of bFGF against TNFα", "setting": "L929 cells", "value": "inhibited the protective action of bFGF"}, {"measurement": "inhibition of MEK-1", "setting": "MEK-1", "value": "inhibits the dual specificity protein kinase, MEK-1"}]}]}
